From ChEMBL document CHEMBL1201862, “PubChem BioAssay data set” (2004)
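A five-concentration, 48-hour dose response in 96-well plates underlies each endpoint, interpolated linearly between surrounding concentrations. Here, GI50 denotes the concentration required for 50% inhibition of growth.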 The source made the active and inactive calls. Rule as the data show it: active = GI50 up to about 1.1 µM and inactive = higher.

Assays:
Assay in all cases: DTP human tumour cell line panel, 48 h
UACC-257 = test system: UACC-257
NCI-H460 = test system: NCI-H460
RPMI-8226 = test system: RPMI-8226
SNB-75 = test system: SNB-75
NCI-H23 = test system: NCI-H23
HCT-15 = test system: HCT-15
HOP-92 = test system: HOP-92
CAKI-1 = test system: CAKI-1
CCRF-CEM = test system: CCRF-CEM
K562 = test system: K562
SF-268 = test system: SF-268
SNB-19 = test system: SNB-19
SK-MEL-28 = test system: SK-MEL-28
Malme-3M = test system: Malme-3M
KM12 = test system: KM12
NCI/ADR-RES = test system: NCI/ADR-RES
M14 = test system: M14
SW-620 = test system: SW-620
UACC-62 = test system: UACC-62

| SMILES | GI50 (UACC-257) | GI50 (NCI-H460) | GI50 (RPMI-8226) | GI50 (SNB-75) | GI50 (NCI-H23) | GI50 (HCT-15) [µM] | GI50 (HOP-92) | GI50 (CAKI-1) | GI50 (CCRF-CEM) | GI50 (K562) | GI50 (SF-268) | GI50 (SNB-19) | GI50 (SK-MEL-28) | GI50 (Malme-3M) | GI50 (KM12) | GI50 (NCI/ADR-RES) | GI50 (M14) | GI50 (SW-620) | GI50 (UACC-62) |
| --- | --- | --- | --- | --- | --- | --- | --- | --- | --- | --- | --- | --- | --- | --- | --- | --- | --- | --- | --- |
| CCOc1ccnc2c(OC)c(C)c3nc4ccccc4nc3c12 | > 100 µM (inactive) | > 100 µM (inactive) | > 100 µM (inactive) | 25.3 µM (inactive) | > 100 µM (inactive) | 12.8 | 93.8 µM (inactive) | > 100 µM (inactive) | > 100 µM (inactive) | 98.6 µM (inactive) | > 100 µM (inactive) | > 100 µM (inactive) | > 100 µM (inactive) | > 100 µM (inactive) | 86.5 µM (inactive) | 71.1 µM (inactive) | > 100 µM (inactive) | > 100 µM (inactive) | – |
| CN(C)/N=N/c1c[nH]nc1C(N)=O | > 100 µM (inactive) | > 100 µM (inactive) | > 100 µM (inactive) | > 100 µM (inactive) | > 100 µM (inactive) | 64.1 | > 100 µM (inactive) | > 100 µM (inactive) | > 100 µM (inactive) | 54.8 µM (inactive) | > 100 µM (inactive) | > 100 µM (inactive) | > 100 µM (inactive) | > 100 µM (inactive) | > 100 µM (inactive) | – | > 100 µM (inactive) | > 100 µM (inactive) | 16.2 µM (inactive) |
| O=C(O)c1cc(S(=O)(=O)N/N=C\c2c3ccccc3[n+]([O-])c3ccccc23)ccc1O | 26.1 µM (inactive) | 5.96 µM (inactive) | 7.48 µM (inactive) | 2.58 µM (inactive) | 8.04 µM (inactive) | 5.96 | 9.64 µM (inactive) | 45.8 µM (inactive) | 8.57 µM (inactive) | 8.61 µM (inactive) | 11.7 µM (inactive) | 31.6 µM (inactive) | 12.3 µM (inactive) | 17.7 µM (inactive) | 23.8 µM (inactive) | – | 17.1 µM (inactive) | 11.3 µM (inactive) | 8.69 µM (inactive) |
| COC(=O)C(CSSC[C@H](N/C(C)=C/C(C)=O)C(=O)OC)N/C(C)=C/C(C)=O (stereo not given in full) | 32.7 µM (inactive) | > 100 µM (inactive) | 21.3 µM (inactive) | 71.4 µM (inactive) | > 100 µM (inactive) | – | 32.5 µM (inactive) | 17.3 µM (inactive) | 26.4 µM (inactive) | 33.3 µM (inactive) | 42.2 µM (inactive) | > 100 µM (inactive) | > 100 µM (inactive) | 14.4 µM (inactive) | 28.8 µM (inactive) | > 100 µM (inactive) | 30.8 µM (inactive) | 34.1 µM (inactive) | 64.4 µM (inactive) |
| O=C1c2ccccc2C(=O)C1C(c1ccc(F)cc1)C1C(=O)c2ccccc2C1=O | > 100 µM (inactive) | > 100 µM (inactive) | 48.3 µM (inactive) | 55 µM (inactive) | > 100 µM (inactive) | > 100 | > 100 µM (inactive) | > 100 µM (inactive) | 43 µM (inactive) | > 100 µM (inactive) | > 100 µM (inactive) | > 100 µM (inactive) | > 100 µM (inactive) | > 100 µM (inactive) | > 100 µM (inactive) | – | > 100 µM (inactive) | > 100 µM (inactive) | > 100 µM (inactive) |
| CCC1=CC(OCc2ccccc2)C(CCN(Cc2ccccc2)C(=O)OCc2ccccc2)C1 (stereo not given) | 13.9 µM (inactive) | 15.3 µM (inactive) | 8.59 µM (inactive) | 10.3 µM (inactive) | 14.9 µM (inactive) | 13.6 | 13.5 µM (inactive) | 14.7 µM (inactive) | – | 11 µM (inactive) | 15.6 µM (inactive) | 14.8 µM (inactive) | 20.7 µM (inactive) | 15.6 µM (inactive) | 15.6 µM (inactive) | 15.9 µM (inactive) | 13.7 µM (inactive) | 18.4 µM (inactive) | 10.9 µM (inactive) |
| N#Cc1nc(C#N)c(NC(=O)c2ccccc2C(=O)O)[nH]1 | > 100 µM (inactive) | – | > 100 µM (inactive) | > 100 µM (inactive) | > 100 µM (inactive) | – | > 100 µM (inactive) | > 100 µM (inactive) | > 100 µM (inactive) | > 100 µM (inactive) | > 100 µM (inactive) | > 100 µM (inactive) | > 100 µM (inactive) | > 100 µM (inactive) | > 100 µM (inactive) | > 100 µM (inactive) | > 100 µM (inactive) | > 100 µM (inactive) | > 100 µM (inactive) |
